Experimental findings from patent US20260273072A1, “NOVEL PLK1 DEGRADATION INDUCING COMPOUND” (UPPTHERA, INC., priority 2023, published 2026) are described below.

Common to all, as to format: cell-based
One assay concerns the target T1, PLK1 (Homo sapiens, UniProt P53350).
T1 construct: endogenous in cells; host or cells: HeLa LgBit (Plk1-HiBit KI): HeLa stably expressing LgBit, with a CRISPR/Cas9 knock-in of HiBit at the endogenous PLK1 locus
The assay is described as follows: Luciferase assay for PLK1 in HeLa LgBit (Plk1-HiBit KI) cell line. The conditions noted are these: 300 nM compound, luminescence after 9 hours. A digest of the protocol: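 Compounds (300 nM) were added with Endurazine to thymidine-synchronised cells (2 mM, 24 h block, then release and 18 h culture), and luminescence at 470-480 nm was followed live. Cells: HeLa stably expressing LgBit, HiBit knocked into native PLK1 C-terminus. Value: luminescence ratio versus DMSO control.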
(In general: HiBiT is a short tag that completes a luciferase, so light tracks the accessible tagged protein.)

The subject of the next assay is NCI-H69 cell line. The assay is described as follows: Cell viability assay for NCI-H69 cell line (EZ-Cytox). Conditions: Homo sapiens, NCI-H69, 120 h; H69 cells, 5 days, 3000 nM to 0.46 nM. Summed up: (§1)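 IC50 values are binned (A: <30 nM, B: <50 nM, C: <100 nM, D: <200 nM, E: <400 nM) from EZ-Cytox read-outs. Cells were exposed to compound for 5 days, then shaken 3 min and absorbance taken at […].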

The next assay has as its system MRC-5 cell line. The assay is described as follows: Cell viability assay for MRC-5 cell line (EZ-Cytox). The conditions noted are these: Homo sapiens, MRC5, 120 h; MRC-5 normal cell line, 5 days, 10000 nM to 1.52 nM; read-out: Activity: IC50 value, cell viability, MRC-5 cell line (Exemplary Compounds). As to the method:
4. Cell Viability Assay for MRC-5 Cell Line
(1) Culture of MRC-5 Cell Line
The MRC-5 cell line was purchased from KCLB. Passage of cultured cells was maintained within P15.
(2) Treatment of Compounds of the Present Invention
Then, it was cultured in 37° C. CO2 incubator (Thermo Fisher Scientific) for 5 days.
(3) Cytotoxicity Experiment
CO2 incubator for 4 hours.

In a further assay the test system is NCI-H526 cell line. The assay is described as follows: Cell viability assay for NCI-H526 cell line (EZ-Cytox). Conditions: Homo sapiens, NCI-H526, 120 h; H526 cells, 5 days, 3000 nM to 0.46 nM. A digest of the protocol: as §1

T1 sequence (P53350 whole entry): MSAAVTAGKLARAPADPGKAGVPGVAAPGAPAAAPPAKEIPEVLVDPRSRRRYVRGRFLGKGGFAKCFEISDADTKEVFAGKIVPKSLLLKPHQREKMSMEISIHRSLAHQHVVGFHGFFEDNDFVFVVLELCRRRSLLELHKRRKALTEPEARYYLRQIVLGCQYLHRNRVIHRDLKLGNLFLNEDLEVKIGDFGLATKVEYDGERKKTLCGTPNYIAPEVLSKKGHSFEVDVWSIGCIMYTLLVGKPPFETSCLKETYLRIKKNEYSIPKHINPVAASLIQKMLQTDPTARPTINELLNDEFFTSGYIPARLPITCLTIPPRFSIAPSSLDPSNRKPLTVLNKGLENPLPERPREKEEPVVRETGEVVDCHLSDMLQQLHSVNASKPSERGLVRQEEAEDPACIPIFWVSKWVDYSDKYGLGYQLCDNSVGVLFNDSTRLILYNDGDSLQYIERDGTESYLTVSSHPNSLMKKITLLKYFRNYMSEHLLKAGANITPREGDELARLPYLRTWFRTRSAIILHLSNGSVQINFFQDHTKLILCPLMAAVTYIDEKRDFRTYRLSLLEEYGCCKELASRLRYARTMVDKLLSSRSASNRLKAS

For `CCN1CC(F)(F)C(=O)N(C)c2cnc(Nc3ccc(C(=O)NN4CCC(CCN5CCN(c6cc(OC)c(NC7CCC(=O)NC7=O)cc6F)CC5)CC4)cc3OC)nc21` (stereo not drawn) [Compound 41, N(4-(2-(4-(4-((2,6-dioxopiperidin-3-yl)amino)-2-fluoro-5-methoxyphenyl)piperazin-1-yl)ethyl)piperidin-1-yl)-4-((9-ethyl-7,7-difluoro-5-methyl-6-oxo-6,7,8,9-tetrahydro-5H-pyrimido[4,5-b][1,4]diazepin-2-yl)amino)-3-methoxybenzamide], the “Activity: ratio of the luminescence value of compound treatment group to DMSO treatment group” value (from here on “Activity: ratio”) on PLK1 is on record as “++ (++: <0.5)”. Besides, the values for the IC50 with NCI-H69 cell line, in the assay with MRC-5 cell line and in the assay on NCI-H526 cell line were under 30 nM, over 10000 nM and under 30 nM, respectively.
For `COc1cc(C(=O)NC2CC3(CCN(CC4CCN(c5cc(F)c(NC6CCC(=O)NC6=O)cc5F)CC4)CC3)C2)c(F)cc1Nc1ncc2c(n1)N(C(C)C)CC(F)(F)C(=O)N2C` (stereo not drawn) [Compound 69, 4-((7,7-difluoro-9-isopropyl-5-methyl-6-oxo-6,7,8,9-tetrahydro-5H-pyrimido[4,5-b][1,4]diazepin-2-yl)amino)-N-(7-((1-(4-((2,6-dioxopiperidin-3-yl)amino)-2,5-difluorophenyl)piperidin-4-yl)methyl)-7-azaspiro[3.5]nonan-2-yl)-2-fluoro-5-methoxybenzamide], the “Activity: ratio” value on PLK1 is “++ (++: <0.5)”. Also, the IC50 (commonly the midpoint of a concentration-inhibition curve) with NCI-H69 cell line is under 50 nM; in the assay on MRC-5 cell line, over 10000 nM; with NCI-H526 cell line it was under 30 nM.
`COc1cc(C(=O)NC2CCN(CCN3CCN(c4cc(F)c(NC5CCC(=O)NC5=O)cc4F)CC3)CC2)ccc1Nc1ncc2c(n1)N(C1CCCC1)CC(F)(F)C(=O)N2C` (stereo not drawn) [Compound 67, 4-((9-cyclopentyl-7,7-difluoro-5-methyl-6-oxo-6,7,8,9-tetrahydro-5H-pyrimido[4,5-b][1,4]diazepin-2-yl)amino)-N-(1-(2-(4-(4-((2,6-dioxopiperidin-3-yl)amino)-2,5-difluorophenyl)piperazin-1-yl)ethyl)piperidin-4-yl)-3-methoxybenzamide]: the “Activity: ratio” value on PLK1 was “++ (++: <0.5)”. Besides, the IC50 in the assay with NCI-H69 cell line was under 30 nM; in the assay with MRC-5 cell line, over 10000 nM; in the assay with NCI-H526 cell line, under 30 nM.
For `COc1cc(C(=O)NN2CCC(CCN3CCN(c4ccc(NC5CCC(=O)NC5=O)nc4)CC3)CC2)ccc1Nc1ncc2c(n1)N(C1CCCC1)CC(F)(F)C(=O)N2C` (stereo not drawn) [Compound 77, 4-((9-cyclopentyl-7,7-difluoro-5-methyl-6-oxo-6,7,8,9-tetrahydro-5H-pyrimido[4,5-b][1,4]diazepin-2-yl)amino)-N-(4-(2-(4-(6-((2,6-dioxopiperidin-3-yl)amino)pyridin-3-yl)piperazin-1-yl)ethyl)piperidin-1-yl)-3-methoxybenzamide], the “Activity: ratio” value at PLK1 is given as “++ (++: <0.5)”. For the same compound, the IC50 in the assay with NCI-H69 cell line was under 30 nM; in the assay on MRC-5 cell line, over 10000 nM; in the assay with NCI-H526 cell line, under 30 nM.
On to `COc1cc(C(=O)NC2CC3(CCN(CC4CCN(c5cc(OC)c(NC6CCC(=O)NC6=O)cc5F)CC4)CC3)C2)ncc1Nc1ncc2c(n1)N(C(C)C)CC(F)(F)C(=O)N2C` (stereo not drawn) [Compound 53, 5-((7,7-difluoro-9-isopropyl-5-methyl-6-oxo-6,7,8,9-tetrahydro-5H-pyrimido[4,5-b][1,4]diazepin-2-yl)amino)-N-(7-((1-(4-((2,6-dioxopiperidin-3-yl)amino)-2-fluoro-5-methoxyphenyl)piperidin-4-yl)methyl)-7-azaspiro[3.5]nonan-2-yl)-4-methoxypicolinamide], for which the “Activity: ratio” value on PLK1 is on record as “++ (++: <0.5)”. The IC50 in the assay on NCI-H69 cell line was under 50 nM; in the assay on MRC-5 cell line, over 10000 nM; in the assay on NCI-H526 cell line, under 30 nM.
On to `CCN1CC(F)(F)C(=O)N(C)c2cnc(Nc3ccc(C(=O)NN4CCC(CCN5CCN(c6ccc(NC7CCC(=O)NC7=O)cc6F)CC5)CC4)cc3OC)nc21` (stereo not drawn) [Compound 28, N(4-(2-(4-(4-((2,6-dioxopiperidin-3-yl)amino)-2-fluorophenyl)piperazin-1-yl)ethyl)piperidin-1-yl)-4-((9-ethyl-7,7-difluoro-5-methyl-6-oxo-6,7,8,9-tetrahydro-5H-pyrimido[4,5-b][1,4]diazepin-2-yl)amino)-3-methoxybenzamide], for which the “Activity: ratio” value at PLK1 is “+++ (+++: <0.3)”. The IC50 with NCI-H69 cell line is under 30 nM; in the assay with MRC-5 cell line, over 10000 nM; in the assay on NCI-H526 cell line, under 30 nM.
`COc1cc(C(=O)NC2CCN(CCN3CCN(c4cc(Cl)c(NC5CCC(=O)NC5=O)cc4F)CC3)CC2)c(F)cc1Nc1ncc2c(n1)N(C1CCCC1)CC(F)(F)C(=O)N2C` (stereo not drawn) [Compound 73, N(1-(2-(4-(5-chloro-4-((2,6-dioxopiperidin-3-yl)amino)-2-fluorophenyl)piperazin-1-yl)ethyl)piperidin-4-yl)-4-((9-cyclopentyl-7,7-difluoro-5-methyl-6-oxo-6,7,8,9-tetrahydro-5H-pyrimido[4,5-b][1,4]diazepin-2-yl)amino)-2-fluoro-5-methoxybenzamide]: the “Activity: ratio” value on PLK1 is given as “++ (++: <0.5)”. Further, the IC50 is under 100 nM with NCI-H69 cell line, over 10000 nM in the assay with MRC-5 cell line and under 50 nM in the assay on NCI-H526 cell line.
The like results for `COc1cc(C(=O)NC2CCN(CCC3CCN(c4cc(F)c(NC5CCC(=O)NC5=O)cc4F)CC3)CC2)ccc1Nc1ncc2c(n1)N(C1CCCC1)CC(F)(F)C(=O)N2C` (stereo not drawn) [Compound 63, 4-((9-cyclopentyl-7,7-difluoro-5-methyl-6-oxo-6,7,8,9-tetrahydro-5H-pyrimido[4,5-b][1,4]diazepin-2-yl)amino)-N-(1-(2-(1-(4-((2,6-dioxopiperidin-3-yl)amino)-2,5-difluorophenyl)piperidin-4-yl)ethyl)piperidin-4-yl)-3-methoxybenzamide] were, in that order, “+++ (+++: <0.3)”, under 50 nM, over 10000 nM and under 30 nM.
The like results for `CCN1CC(F)(F)C(=O)N(C)c2cnc(Nc3ccc(C(=O)NC4CCN(CCC5CCN(c6cc(F)c(NC7CCC(=O)NC7=O)cc6F)CC5)CC4)cc3OC)nc21` (stereo not drawn) [Compound 64, N(1-(2-(1-(4-((2,6-dioxopiperidin-3-yl)amino)-2,5-difluorophenyl)piperidin-4-yl)ethyl)piperidin-4-yl)-4-((9-ethyl-7,7-difluoro-5-methyl-6-oxo-6,7,8,9-tetrahydro-5H-pyrimido[4,5-b][1,4]diazepin-2-yl)amino)-3-methoxybenzamide] were, in that order, “++ (++: <0.5)”, under 30 nM, over 10000 nM and under 30 nM.
Take `COc1cc(C(=O)NC2CCC(N(C)CC3CCN(c4ccc(C5CCC(=O)NC5=O)nc4)CC3)CC2)ccc1Nc1ncc2c(n1)N(C1CCCC1)CC(F)(F)C(=O)N2C` (stereo not drawn) [Compound 10, 4-((9-cyclopentyl-7,7-difluoro-5-methyl-6-oxo-6,7,8,9-tetrahydro-5H-pyrimido[4,5-b][1,4]diazepin-2-yl)amino)-N-((1r,4r)-4-(((1-(6-(2,6-dioxopiperidin-3-yl)pyridin-3-yl)piperidin-4-yl)methyl)(methyl)amino)cyclohexyl)-3-methoxybenzamide]: on PLK1, the “Activity: ratio” value is on record as “+++ (+++: <0.3)”. The IC50 in the assay with NCI-H69 cell line was under 30 nM; with MRC-5 cell line, over 10000 nM; in the assay on NCI-H526 cell line, under 30 nM.
For the compound `COc1cc(C(=O)N[C@H]2CC[C@H](CN(C)C3CCN(c4ccc(C5CCC(=O)NC5=O)nc4)CC3)CC2)ccc1Nc1ncc2c(n1)N(C1CCCC1)CC(F)(F)C(=O)N2C` (stereo partly drawn) [Compound 9, 4-((9-cyclopentyl-7,7-difluoro-5-methyl-6-oxo-6,7,8,9-tetrahydro-5H-pyrimido[4,5-b][1,4]diazepin-2-yl)amino)-N-((1r,4r)-4-(((1-(6-(2,6-dioxopiperidin-3-yl)pyridin-3-yl)piperidin-4-yl)(methyl)amino)methyl)cyclohexyl)-3-methoxybenzamide], the “Activity: ratio” value at PLK1 was “++ (++: <0.5)”. Further, the values for the IC50 in the assay on NCI-H69 cell line, in the assay on MRC-5 cell line and in the assay on NCI-H526 cell line were under 30 nM, over 10000 nM and under 30 nM, respectively.
Consider `COc1cc(C(=O)NC2CCN(CCC3CCN(c4ccc(NC5CCC(=O)NC5=O)c(F)c4)CC3)CC2)c(F)cc1Nc1ncc2c(n1)N(C(C)C)CC(F)(F)C(=O)N2C` (stereo not drawn) [Compound 37, 4-((7,7-difluoro-9-isopropyl-5-methyl-6-oxo-6,7,8,9-tetrahydro-5H-pyrimido[4,5-b][1,4]diazepin-2-yl)amino)-N-(1-(2-(1-(4-((2,6-dioxopiperidin-3-yl)amino)-3-fluorophenyl)piperidin-4-yl)ethyl)piperidin-4-yl)-2-fluoro-5-methoxybenzamide], for which the “Activity: ratio” value on PLK1 is reported as “++ (++: <0.5)”. Besides, the figures for the IC50 in the assay on NCI-H69 cell line, in the assay with MRC-5 cell line and in the assay with NCI-H526 cell line were under 100 nM, over 10000 nM and under 50 nM, respectively.
